Test results from patent US20080317769A1, “Vaccine Composition Comprising Alpha-Galactosylceramide as an Adjuvant For Intranasal Administration” (priority 2005, published 2008).
Entries after “also recorded” stand apart in the source; their conditions may differ.

Assays:
[1] = system: IFN-γ and IL-4 secretion; assay: IFN-γ and IL-4 secretion of spleen and CLN cells cultured with OVA (sandwich ELISA), C57BL/6 mice; assay type: in vivo; conditions: cells cultured with 500 μg/ml OVA for 4 days, one week after final immunization
Method: It was directly investigated whether α-GalCer nasal vaccine adjuvant skews immune response into Th1 or Th2 immune response. To measure the secretions of cytokines, cells were obtained from spleen and cervical lymph node (CLN) a week after the final immunization. The cells ([…]) were cultured with 500 μg/ml of OVA for 4 days. The secretions of IFN-γ and IL-4 in the culture supernatant were measured by using the mouse IFN-γ and IL-4 OptELA set ELISA kit (BD Pharmigen) according to the manufacturer's instruction.

[2] = target: T1, CD1d (Mus musculus, UniProt P11609); assay: Systemic IgG and in vivo CTL activity in wild type versus CD1d−/− C57BL/6 mice; conditions: CD1d−/− vs wild type C57BL/6 mice; OVA + αGalCer intranasal three times at one-week intervals
T1 construct: host or cells: antigen presenting cells of living C57BL/6 mice (in vivo)
T1 sequence (P11609 22-336): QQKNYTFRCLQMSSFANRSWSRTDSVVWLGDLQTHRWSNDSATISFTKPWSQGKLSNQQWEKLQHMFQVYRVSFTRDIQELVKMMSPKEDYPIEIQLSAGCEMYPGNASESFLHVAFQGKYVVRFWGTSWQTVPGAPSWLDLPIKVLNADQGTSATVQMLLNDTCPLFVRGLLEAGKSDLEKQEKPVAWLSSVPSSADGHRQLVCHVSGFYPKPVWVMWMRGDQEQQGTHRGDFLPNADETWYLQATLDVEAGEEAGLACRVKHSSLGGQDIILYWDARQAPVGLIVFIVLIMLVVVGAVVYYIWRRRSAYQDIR
T1 sequence (P01887 21-119 partner): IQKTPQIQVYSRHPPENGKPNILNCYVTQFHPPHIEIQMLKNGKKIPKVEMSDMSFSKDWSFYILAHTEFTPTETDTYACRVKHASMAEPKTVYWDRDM
Method: To investigate whether the immune responses induced by αGalCer were mediated by CD1d, NKT deficient (resulted from the lack of CD1d) CD1d−/− C57BL/6 mice (Charles River Lab., Orient Co. Ltd., Korea) were used for the experiment (Park et al., J. Exp. Med., 193: 893, 2001). On the first week of the final intranasal administration, systemic IgG level in serum and in vivo CTL activity were measured in both wild type and CD1d−/− C57BL/6 mice by the same manner as described in Example 1 and Example 3.

[3] = system: inactivated influenza virus A/PR/8/34 (PR8); assay: Humoral immune response after intranasal formalin-inactivated PR8 virus with αGalCer; assay type: in vivo; conditions: Balb/c mice
Method: (§1) To examine the role of αGalCer as an adjuvant of a killed virus, influenza virus A/PR/8/34 (PR8), which was inactivated with formalin, was used as an antigen to examine the anti-virus immune response. Balb/c mice were immunized with indicated amounts (1 μg, 10 μg) of inactivated PR8 alone or together with αGalCer by the intranasal administration twice at two-week intervals. Two weeks after the final immunization, the mice were sacrificed and following experiments were performed.
The nasal wash, the lung wash and serum were separated from the sacrificed mice and the antibody productions were observed therein by the same manner as described in Example 1.

[4] = system: IFN-γ and IL-4 production; assay: IFN-γ and IL-4 production of spleen and CLN cells cultured with inactive PR8; assay type: in vivo; conditions: Balb/c mice; inactivated PR8 + αGalCer intranasal; cells cultured with inactive PR8 for 5 days
Method: as §1
The supernatants were obtained and the levels of IFN-γ and IL-4 therein were measured by the same manner as described in Example 2.

## CCCCCCCCCCCCCCCCCCCCCCCCCC(=O)N[C@@H](CO[C@H]1O[C@H](CO)[C@H](O)[C@H](O)[C@H]1O)[C@H](O)[C@H](O)CCCCCCCCCCCCCC [αGalCer, alpha-galactosylceramide]
[1]
  secretions of IFN-γ and IL-4 in spleen and CLN: significantly increased
[2]
  CTL lytic activity in draining lymph node and systemic lymphoid organs of CD1d−/− mice: inhibited
  systemic IgG antibody response in CD1d−/− mice: significantly inhibited
[3]; inactivated PR8 (1 μg, 10 μg) + αGalCer intranasal twice at two-week intervals, vs inactivated PR8 alone
  antigen-specific systemic IgG in serum: significantly higher; also recorded: increased
[3]; inactivated PR8 + αGalCer intranasal twice at two-week intervals
  mucosal S-IgA in the nasal wash and the lung wash: remarkably increased
[4]
  levels of Th1 cytokine IFN-γ and Th2 cytokine IL-4 in spleen and CLN: significantly increased
